Key:
Type in all cases: in vivo
[1] = system: barnyardgrass (Echinochloa crus-galli); experiment: Test A postemergence; details: 0 to 100 scale, 0 no effect, 100 complete control, approx. 10 days
Description: (§1) Seeds of barnyardgrass (Echinochloa crus-galli), large crabgrass (Digitaria sanguinalis), giant foxtail (Setaria faberii), morningglory (Ipomoea spp.), pigweed (Amaranthus retroflexus), velvetleaf (Abutilon theophrasti), wheat (Triticum aestivum) and corn (Zea mays) were planted into a blend of loam soil and sand and treated preemergence with a directed soil spray using test chemicals formulated in a non-phytotoxic solvent mixture which included a surfactant. At the same time these species were also treated with postemergence applications of test compounds formulated in the same manner. Plants ranged in height from 2 to 10 cm and were in the one- to two-leaf stage for the postemergence treatments. Treated plants and untreated controls were maintained in a greenhouse for approximately 10 days, after which time all treated plants were compared to untreated controls and visually evaluated for injury. Plant response ratings, summarized in Table A, are based on a 0 to 100 scale where 0 is no effect and 100 is complete control.

[2] = system: corn (Zea mays); experiment: Test A postemergence; details: 0 to 100 scale, 0 no effect, 100 complete control, approx. 10 days
Description: as §1

[3] = system: giant foxtail (Setaria faberii); experiment: Test A postemergence; details: 0 to 100 scale, 0 no effect, 100 complete control, approx. 10 days
Description: as §1

[4] = system: large crabgrass (Digitaria sanguinalis); experiment: Test A postemergence; details: 0 to 100 scale, 0 no effect, 100 complete control, approx. 10 days
Description: as §1

[5] = system: morningglory (Ipomoea spp.); experiment: Test A postemergence; details: 0 to 100 scale, 0 no effect, 100 complete control, approx. 10 days
Description: as §1

[6] = system: pigweed (Amaranthus retroflexus); experiment: Test A postemergence; details: 0 to 100 scale, 0 no effect, 100 complete control, approx. 10 days
Description: as §1

[7] = system: velvetleaf (Abutilon theophrasti); experiment: Test A postemergence; details: 0 to 100 scale, 0 no effect, 100 complete control, approx. 10 days
Description: as §1

[8] = system: wheat (Triticum aestivum); experiment: Test A postemergence; details: 0 to 100 scale, 0 no effect, 100 complete control, approx. 10 days
Description: as §1

[9] = system: barnyardgrass (Echinochloa crus-galli); experiment: Test A preemergence; details: 0 to 100 scale, 0 no effect, 100 complete control, approx. 10 days
Description: as §1

[10] = system: corn (Zea mays); experiment: Test A preemergence; details: 0 to 100 scale, 0 no effect, 100 complete control, approx. 10 days
Description: as §1

[11] = system: giant foxtail (Setaria faberii); experiment: Test A preemergence; details: 0 to 100 scale, 0 no effect, 100 complete control, approx. 10 days
Description: as §1

[12] = system: large crabgrass (Digitaria sanguinalis); experiment: Test A preemergence; details: 0 to 100 scale, 0 no effect, 100 complete control, approx. 10 days
Description: as §1

[13] = system: morningglory (Ipomoea spp.); experiment: Test A preemergence; details: 0 to 100 scale, 0 no effect, 100 complete control, approx. 10 days
Description: as §1

[14] = system: pigweed (Amaranthus retroflexus); experiment: Test A preemergence; details: 0 to 100 scale, 0 no effect, 100 complete control, approx. 10 days
Description: as §1

[15] = system: velvetleaf (Abutilon theophrasti); experiment: Test A preemergence; details: 0 to 100 scale, 0 no effect, 100 complete control, approx. 10 days
Description: as §1

[16] = system: wheat (Triticum aestivum); experiment: Test A preemergence; details: 0 to 100 scale, 0 no effect, 100 complete control, approx. 10 days
Description: as §1

[17] = system: barnyardgrass (Echinochloa crus-galli); experiment: Test B flooded paddy test; details: Flood
Description: (§2) Plant species in the flooded paddy test consisted of rice (Oryza sativa), umbrella sedge (Cyperus difformis), ducksalad (Heteranthera limosa) and barnyardgrass (Echinochloa crus-galli) grown to the 2-leaf stage for testing. At time of treatment, test pots were flooded to 3 cm above the soil surface, treated by application of test compounds directly to the paddy water, and then maintained at that water depth for the duration of the test. Treated plants and controls were maintained in a greenhouse for 13 to 15 days, after which time all species were compared to controls and visually evaluated. Plant response ratings, summarized in Table B, are based on a scale of 0 to 100 where 0 is no effect and 100 is complete control. A dash (-) response means no test result.

[18] = system: ducksalad (Heteranthera limosa); experiment: Test B flooded paddy test; details: Flood, scale 0 to 100
Description: as §2

[19] = system: rice (Oryza sativa); experiment: Test B flooded paddy test; details: Flood, scale 0 to 100
Description: as §2

[20] = system: umbrella sedge (Cyperus difformis); experiment: Test B flooded paddy test; details: Flood, scale 0 to 100
Description: as §2

[21] = 250 g ai/ha, scale 0 to 100 (0 no effect, 100 complete control)

SMILES: CCCCn1c(-c2ccccc2)cnc(C(=O)C2=C(O)CCCC2=O)c1=O [Compound 1, 1-butyl-3-[(2-hydroxy-6-oxo-1-cyclohexen-1-yl)carbonyl]-6-phenyl-2(1H)-pyrazinone]
- Plant response rating, Barnyardgrass ([1]; 125 g ai/ha): 10
- Plant response rating, Barnyardgrass ([1]; 500 g ai/ha): 80
- Plant response rating, Corn ([2]; 125 g ai/ha): 0
- Plant response rating, Corn ([2]; 500 g ai/ha): 10
- Plant response rating, Foxtail, Giant ([3]; 125 g ai/ha): 10
- Plant response rating, Foxtail, Giant ([3]; 500 g ai/ha): 40
- Plant response rating, Crabgrass, Large ([4]; 125 g ai/ha): 10
- Plant response rating, Crabgrass, Large ([4]; 500 g ai/ha): 50
- Plant response rating, Morningglory ([5]; 125 g ai/ha): 40
- Plant response rating, Morningglory ([5]; 500 g ai/ha): 100
- Plant response rating, Pigweed ([6]; 125 g ai/ha): 60
- Plant response rating, Pigweed ([6]; 500 g ai/ha): 100
- Plant response rating, Velvetleaf ([7]; 125 g ai/ha): 100
- Plant response rating, Velvetleaf ([7]; 500 g ai/ha): 100
- Plant response rating, Wheat ([8]; 125 g ai/ha): 0
- Plant response rating, Wheat ([8]; 500 g ai/ha): 0
- Plant response rating, Barnyardgrass ([9]; 125 g ai/ha): 0
- Plant response rating, Barnyardgrass ([9]; 500 g ai/ha): 80
- Plant response rating, Corn ([10]; 125 g ai/ha): 0
- Plant response rating, Corn ([10]; 500 g ai/ha): 0
- Plant response rating, Foxtail, Giant ([11]; 125 g ai/ha): 0
- Plant response rating, Foxtail, Giant ([11]; 500 g ai/ha): 30
- Plant response rating, Crabgrass, Large ([12]; 125 g ai/ha): 10
- Plant response rating, Crabgrass, Large ([12]; 500 g ai/ha): 40
- Plant response rating, Morningglory ([13]; 125 g ai/ha): 0
- Plant response rating, Morningglory ([13]; 500 g ai/ha): 70
- Plant response rating, Pigweed ([14]; 125 g ai/ha): 60
- Plant response rating, Pigweed ([14]; 500 g ai/ha): 100
- Plant response rating, Velvetleaf ([15]; 125 g ai/ha): 50
- Plant response rating, Velvetleaf ([15]; 500 g ai/ha): 100
- Plant response rating, Wheat ([16]; 125 g ai/ha): 0
- Plant response rating, Wheat ([16]; 500 g ai/ha): 0
- Plant response rating, Barnyardgrass ([17]; 62 g ai/ha, scale 0 to 100): 60
- Plant response rating, Barnyardgrass [17, 21]: 80
- Plant response rating, Ducksalad ([18]; 62 g ai/ha): 60
- Plant response rating, Ducksalad ([18]; 250 g ai/ha): 95
- Plant response rating, Rice ([19]; 62 g ai/ha): 70
- Plant response rating, Rice ([19]; 250 g ai/ha): 85
- Plant response rating, Sedge, Umbrella ([20]; 62 g ai/ha): 70
- Plant response rating, Sedge, Umbrella ([20]; 250 g ai/ha): 95

SMILES: COCCCn1c(-c2cc(F)cc(F)c2)c(Cl)nc(C(=O)C2=C(O)CCCC2=O)c1=O [Compound 8]
- Plant response rating, Barnyardgrass ([1]; 31 g ai/ha): 0
- Plant response rating, Barnyardgrass ([1]; 125 g ai/ha): 10
- Plant response rating, Corn ([2]; 31 g ai/ha): 0
- Plant response rating, Corn ([2]; 125 g ai/ha): 0
- Plant response rating, Foxtail, Giant ([3]; 31 g ai/ha): 0
- Plant response rating, Foxtail, Giant ([3]; 125 g ai/ha): 10
- Plant response rating, Crabgrass, Large ([4]; 31 g ai/ha): 0
- Plant response rating, Crabgrass, Large ([4]; 125 g ai/ha): 30
- Plant response rating, Morningglory ([5]; 31 g ai/ha): 0
- Plant response rating, Morningglory ([5]; 125 g ai/ha): 50
- Plant response rating, Pigweed ([6]; 31 g ai/ha): 20
- Plant response rating, Pigweed ([6]; 125 g ai/ha): 40
- Plant response rating, Velvetleaf ([7]; 31 g ai/ha): 10
- Plant response rating, Velvetleaf ([7]; 125 g ai/ha): 50
- Plant response rating, Wheat ([8]; 31 g ai/ha): 0
- Plant response rating, Wheat ([8]; 125 g ai/ha): 0
- Plant response rating, Barnyardgrass ([9]; 31 g ai/ha): 0
- Plant response rating, Barnyardgrass ([9]; 125 g ai/ha): 10
- Plant response rating, Corn ([10]; 31 g ai/ha): 0
- Plant response rating, Corn ([10]; 125 g ai/ha): 0
- Plant response rating, Foxtail, Giant ([11]; 31 g ai/ha): 0
- Plant response rating, Foxtail, Giant ([11]; 125 g ai/ha): 0
- Plant response rating, Crabgrass, Large ([12]; 31 g ai/ha): 20
- Plant response rating, Crabgrass, Large ([12]; 125 g ai/ha): 40
- Plant response rating, Morningglory ([13]; 31 g ai/ha): 0
- Plant response rating, Morningglory ([13]; 125 g ai/ha): 10
- Plant response rating, Pigweed ([14]; 31 g ai/ha): 0
- Plant response rating, Pigweed ([14]; 125 g ai/ha): 10
- Plant response rating, Velvetleaf ([15]; 31 g ai/ha): 0
- Plant response rating, Velvetleaf ([15]; 125 g ai/ha): 0
- Plant response rating, Wheat ([16]; 31 g ai/ha): 0
- Plant response rating, Wheat ([16]; 125 g ai/ha): 0
- Plant response rating, Barnyardgrass ([17]; 31 g ai/ha, scale 0 to 100): 0
- Plant response rating, Barnyardgrass ([17]; 62 g ai/ha, scale 0 to 100): 0
- Plant response rating, Barnyardgrass ([17]; 125 g ai/ha, scale 0 to 100): 0
- Plant response rating, Barnyardgrass [17, 21]: 40
- Plant response rating, Ducksalad ([18]; 31 g ai/ha): 0
- Plant response rating, Ducksalad ([18]; 62 g ai/ha): 0
- Plant response rating, Ducksalad ([18]; 125 g ai/ha): 30
- Plant response rating, Ducksalad ([18]; 250 g ai/ha): 80
- Plant response rating, Rice ([19]; 31 g ai/ha): 0
- Plant response rating, Rice ([19]; 62 g ai/ha): 0
- Plant response rating, Rice ([19]; 125 g ai/ha): 0
- Plant response rating, Rice ([19]; 250 g ai/ha): 25
- Plant response rating, Sedge, Umbrella ([20]; 31 g ai/ha): 0
- Plant response rating, Sedge, Umbrella ([20]; 62 g ai/ha): 40
- Plant response rating, Sedge, Umbrella ([20]; 125 g ai/ha): 40
- Plant response rating, Sedge, Umbrella ([20]; 250 g ai/ha): 75

— US20140024527A1, “HERBICIDAL PYRAZINONES” (E I DU DE NEMOURS AND COMPANY, priority 2011, published 2014)
